# Article PMC8136874, “The entry reaction of the plant shikimate pathway is subjected to highly complex metabolite-mediated regulation” (The Plant Cell, 2021)
# Assays:
# AthDHS1 = biological target: T1, AthDHS1 (Arabidopsis thaliana, UniProt P29976); experiment: DHS enzymatic activity assay with recombinant AthDHS1; assay type: biochemical; conditions: for effect on AthDHS1 activity (in words): 1 mM effector; for K m / V max / k cat: various concentrations of the substrate, means ± SEM, n = 3
# T1 construct: AthDHS1; residues 49–525; hexa-histidine; made in house; host or cells: E. coli Rosetta2 (DE3), pET28a
# Description: (§1) Unless otherwise noted, DHS enzymatic activity was monitored as previously described ([Liu et al., 2008]), with several optimizations for high-throughput assays with eight-strip PCR tubes and a thermal cycler. The enzyme solution (7.7 µL) containing 50 mM HEPES (pH 7.4) was preincubated with an effector molecule(s) at room temperature for 10 min. For assays using recombinant protein and enzyme fraction isolated from plant leaves, 0.01–0.05 µg and approximately 50 µg of proteins were used, respectively. After adding 0.5 µL of 0.1 M DTT, the samples were further incubated at room temperature for 15 min. […] The enzyme reaction was started by adding 6.8 µL of the substrate solution, then incubated at 37°C for 20 min, and terminated by adding 30 µL of 0.6 M trichloroacetic acid. After brief centrifugation, 5 µL of 200 mM NaIO4 (sodium meta-periodate) in 9 N H3PO4 was added to oxidize the enzymatic product and incubate at 25°C for 20 min. To stop the oxidation reaction, 20 µL of 0.75 M NaAsO2 (sodium arsenite), which was dissolved in 0.5 M Na2SO4 and 0.05 M H2SO4, was immediately mixed. After 5 min of incubation at room temperature, one-third of the sample solution was transferred to a new tube to be mixed with 50 µL of 40 mM thiobarbituric acid and incubated at 99°C for 15 min in a thermal cycler. Developed pink chromophore was extracted by putting the final solutions with 600 µL of cyclohexanone in eight-strip solvent-resistant plastic tubes, mixing vigorously and centrifuging them at 4,500 × g for 3 min to separate water- and cyclohexanone-based layers. The absorbance of the pink supernatant was read at 549 nm with the microplate reader (Infinite 200 PRO, TECAN, Männedorf, Switzerland) to calculate DAHP production with the molar extinction coefficient at 549 nm (ε = 549 nm) of 4.5 × 10^4/M/cm. Reaction mixtures with boiled enzyme or without any substrates were run in parallel and used as negative controls to estimate the background signal for recombinant enzymes or enzymatic fraction from plant tissues, respectively.
# (§2) For determination of kinetic parameters, the data of enzymatic activities measured in the presence of various concentration of substrates were calculated with the Michaelis–Menten equation in Graphpad Prism 6 (GraphPad Software, San Diego, CA, USA).
# AthDHS2 = biological target: T2, AthDHS2 (Arabidopsis thaliana, UniProt Q00218); experiment: DHS enzymatic activity assay with recombinant AthDHS2; assay type: biochemical; conditions: for effect on AthDHS2 activity (in words) / inhibition of AthDHS2 activity: 1 mM effector; for k cat / K m / V max: various concentrations of the substrate; for k cat: E4P values assume no substrate inhibition; for K m / V max: E4P values estimated from Lineweaver–Burk plots because of substrate inhibition
# T2 construct: AthDHS2; residues 34–507; hexa-histidine; made in house; host or cells: E. coli Rosetta2 (DE3), pET28a
# AthDHS3 = AthDHS3 (Arabidopsis thaliana, UniProt Q9SK84); experiment: DHS enzymatic activity assay with recombinant AthDHS3; assay type: biochemical; conditions: for V max: various concentrations of the substrate, means ± SEM, n = 3
# Description: as §1, §2
# [1] = tested on: AthDHS1 and AthDHS2 mixtures; experiment: DHS assay using mixtures of AthDHS1 and AthDHS2 recombinant enzymes; assay type: biochemical, Arabidopsis thaliana; conditions: 1 mM effector; molar ratios 0, 0.25, 0.5, 0.75, 1
# Description: Next, we thought that the presence of non-inhibited DHS isoforms (e.g. AthDHS1) may affect the AAA sensitivity of AthDHS2, given that AthDHSs are known to function as tetrameric or dimeric forms ([Suzich et al., 1985]; [Pinto et al., 1986]; [Webby et al., 2005]). To test this, the recombinant enzymes of AAA non-inhibited AthDHS1 and AAA-inhibited AthDHS2 were mixed with different ratios (0, 0.25, 0.5, 0.75, and 1) and DHS activity assays were conducted with different inhibitors. Based on the kinetic parameters and the regulatory behaviors of individual AthDHSs, the expected level of DHS activity was first calculated and plotted (dotted lines in Figure 5, D, see the “Materials and methods” section). […] Similar results were obtained for the AthDHS2 and AthDHS3 mixture (Figure 5, E).
# Unless otherwise noted, DHS enzymatic activity was monitored as previously described ([Liu et al., 2008]), with several optimizations for high-throughput assays with eight-strip PCR tubes and a thermal cycler. The enzyme solution (7.7 µL) containing 50 mM HEPES (pH 7.4) was preincubated with an effector molecule(s) at room temperature for 10 min. For assays using recombinant protein and enzyme fraction isolated from plant leaves, 0.01–0.05 µg and approximately 50 µg of proteins were used, respectively. After adding 0.5 µL of 0.1 M DTT, the samples were further incubated at room temperature for 15 min. […] The enzyme reaction was started by adding 6.8 µL of the substrate solution, then incubated at 37°C for 20 min, and terminated by adding 30 µL of 0.6 M trichloroacetic acid. After brief centrifugation, 5 µL of 200 mM NaIO4 (sodium meta-periodate) in 9 N H3PO4 was added to oxidize the enzymatic product and incubate at 25°C for 20 min. […] The absorbance of the pink supernatant was read at 549 nm with the microplate reader (Infinite 200 PRO, TECAN, Männedorf, Switzerland) to calculate DAHP production with the molar extinction coefficient at 549 nm (ε = 549 nm) of 4.5 × 10^4/M/cm. […]
# [2] = tested on: root growth of Arabidopsis Col-0 and dhs mutants; experiment: Chemical feeding experiment, root length of 10-day-old seedlings; assay type: in vivo, Arabidopsis thaliana; conditions: for effect of the added compound on Trp-mediated root growth inhibition of dhs3: media with 300 µM Trp; for effect of the added compound on Trp-mediated root growth inhibition of dhs3 / effect of the added compound on Tyr-mediated root growth inhibition of dhs1: AAAs added at 300 µM, shikimate at 500 µM; for effect of the added compound on Tyr-mediated root growth inhibition of dhs1: media with 300 µM Tyr
# Description: Chemical feeding experiments were carried out as described previously ([de Oliveira et al., 2019]) with some modifications. Seedlings were grown on agar plates containing 0.5 MS with 1% sucrose, 0.8% agar, and 2.5 mM MES at pH 5.7 in the growth chamber where we grew other plants in soil. AAAs and/or shikimate were added to autoclaved media after cooling down to temperatures below 55°C. Plants were grown on the same plate side by side to minimize environmental effects, and multiple plates were prepared to obtain replications. Root lengths of 10-day-old seedlings were quantified by ImageJ.
# [3] = tested on: shikimate accumulation in Col-0 and dhs mutants; experiment: Shikimate content with and without Tyr and/or glyphosate treatment; assay type: in vivo, Arabidopsis thaliana; conditions: 250 µM glyphosate, 2 days; for increase of shikimate accumulation after treatment: plants grown with 300 µM Tyr
# Description: Approximately 50–80 mg of fully expanded mature leaves were pooled from multiple plants at the same developmental stages and ground in 800 µL of extraction buffer (v/v 2:1 of methanol and chloroform with 2 µg/mL isovitexin [Millipore-Sigma], 100 µM norvaline [Thermo Fisher Scientific], and 1.25 µg/mL Tocol [Matreya LLC, State College, PA, USA] for internal standards for soluble metabolite analysis by LC–MS and GC–MS and tocopherol analysis by GC–MS, respectively), using 1600 MiniG Tissue Homogenizer (SPEX SamplePrep, Metuchen, USA) and 3-mm glass beads. After adding 600 µL of H2O and then 250 µL of chloroform, polar phase containing amino acids, and non‐polar phase containing tocopherols were separated by centrifugation, dried in new tubes. To detect Trp and AAA-derived metabolites, LC–MS analysis was carried out as previous described with some modification ([Alseekh et al., 2015]). The dried metabolites were resuspended in 70 µL of 80% LC–MS-grade methanol. Two microliters of the sample was injected onto a HSS T3 C18 reversed phase column (100 × 2.1 mm i.d., 1.8-μm particle size; Waters, Milford, CT, USA) and eluted using a 20-min gradient comprising 0.1% formic acid in LC–MS-grade water (solvent A) and 0.1% formic acid in LC–MS-grade acetonitrile (solvent B) at a flow rate of 0.4 mL/min and column temperature of 40°C. The binary linear gradient with following ratios of solvent B was used: 0–1 min, 1%; 1–13 min, 1%–35%; 13–14.5 min, 35%–70%; 14.5–15.5 min, 70%–99%, 15.5–17 min, 99%; 17–17.5 min, 99%–[…]; 17.5–20 min, 1%. The spectra were recorded using full scan mode of negative ion detection, covering a mass range from m/z 100 to 1,500. The resolution was set to 25,000 and the maximum scan time was set to 250 ms. The sheath gas was set to a value of 60, while the auxiliary gas was set to 35. The transfer capillary temperature was set to 150°C, while the heater temperature was adjusted to 300°C. The spray voltage was fixed at 3 kV, with a capillary voltage and a skimmer voltage of 25 and 15 V, respectively. Retention times, MS spectra, and associated peak intensities were extracted from the raw files using the Xcalibur software (Thermo Fisher Scientific). […] For anthocyanin quantification, the polar phase isolated for amino acid analysis was diluted 10 times with water in a new tube. […] Shikimate level was spectrometrically determined based on previous literatures ([Shaner et al., 2005]; [Sharkhuu et al., 2014]). […] After stopping the reaction by adding 100 µL of a termination solution containing 0.6 N sodium hydroxide and 0.22 M sodium sulfite, the absorption at 380 nm was immediately measured with the microplate reader. Shikimate concentration was determined by comparing with a dilution series of the shikimate standards.
# AthDHS3, sequence (Q9SK84 entry or part of it): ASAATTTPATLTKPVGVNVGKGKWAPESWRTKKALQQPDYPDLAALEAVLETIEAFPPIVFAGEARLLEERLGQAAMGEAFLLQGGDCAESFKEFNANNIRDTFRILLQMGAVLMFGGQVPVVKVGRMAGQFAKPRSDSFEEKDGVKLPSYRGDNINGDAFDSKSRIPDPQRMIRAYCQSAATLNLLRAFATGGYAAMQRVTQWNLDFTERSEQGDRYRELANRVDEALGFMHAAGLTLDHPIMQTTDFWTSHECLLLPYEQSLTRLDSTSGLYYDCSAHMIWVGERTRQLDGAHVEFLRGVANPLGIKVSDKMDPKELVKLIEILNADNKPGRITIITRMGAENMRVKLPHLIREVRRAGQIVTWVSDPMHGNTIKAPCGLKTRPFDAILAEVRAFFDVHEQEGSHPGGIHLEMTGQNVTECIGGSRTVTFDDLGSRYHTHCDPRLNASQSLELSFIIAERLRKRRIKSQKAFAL
# T1 sequence (P29976 49-525): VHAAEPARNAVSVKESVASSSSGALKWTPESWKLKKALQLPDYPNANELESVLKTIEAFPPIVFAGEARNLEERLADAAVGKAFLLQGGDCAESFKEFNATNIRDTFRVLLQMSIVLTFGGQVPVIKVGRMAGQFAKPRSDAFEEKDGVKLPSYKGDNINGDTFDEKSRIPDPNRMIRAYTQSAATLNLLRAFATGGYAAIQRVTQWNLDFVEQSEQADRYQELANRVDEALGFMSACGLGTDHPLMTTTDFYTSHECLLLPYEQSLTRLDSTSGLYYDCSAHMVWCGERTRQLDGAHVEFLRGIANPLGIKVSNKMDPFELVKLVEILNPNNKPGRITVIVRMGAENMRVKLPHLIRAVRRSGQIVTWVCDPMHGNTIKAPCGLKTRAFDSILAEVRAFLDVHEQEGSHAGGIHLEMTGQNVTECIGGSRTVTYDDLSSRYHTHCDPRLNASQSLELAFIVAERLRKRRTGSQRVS
# T2 sequence (Q00218 34-507): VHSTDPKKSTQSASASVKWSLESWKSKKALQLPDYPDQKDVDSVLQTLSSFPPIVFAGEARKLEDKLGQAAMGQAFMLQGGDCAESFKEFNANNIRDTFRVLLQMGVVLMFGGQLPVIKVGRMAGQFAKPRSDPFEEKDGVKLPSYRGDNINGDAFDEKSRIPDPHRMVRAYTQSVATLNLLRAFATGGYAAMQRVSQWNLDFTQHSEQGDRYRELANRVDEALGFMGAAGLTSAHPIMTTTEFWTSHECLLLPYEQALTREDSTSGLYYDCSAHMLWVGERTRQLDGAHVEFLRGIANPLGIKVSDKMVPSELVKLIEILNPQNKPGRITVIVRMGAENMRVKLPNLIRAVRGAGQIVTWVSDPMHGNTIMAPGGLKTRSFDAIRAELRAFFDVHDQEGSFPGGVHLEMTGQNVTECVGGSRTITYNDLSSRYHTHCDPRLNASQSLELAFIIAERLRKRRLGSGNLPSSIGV
compound,measurement,setting,value
COc1cc(/C=C/C(=O)O)cc(OC)c1O [sinapate],effect on AthDHS1 activity (in words),AthDHS1,no effects
same,effect on AthDHS2 activity (in words),AthDHS2,no effects
same,effect on AthDHS3 activity (in words),AthDHS3; 1 mM effector,no effects
O=C(O)/C=C/c1ccc(O)cc1 [p-coumarate],effect on AthDHS1 activity (in words),AthDHS1,no effects
same,effect on AthDHS2 activity (in words),AthDHS2,no effects
same,effect on AthDHS3 activity (in words),AthDHS3; 1 mM effector,no effects
N[C@@H](CC(=O)O)C(=O)O [aspartate],effect on AthDHS1 activity (in words),AthDHS1,did not affect
"N[C@@H](Cc1ccccc1)C(=O)O [Phe, L-phenylalanine]",effect on AthDHS1 activity (in words),AthDHS1,did not significantly affect
same,concentration beyond which AthDHS2 activity is slightly activated,AthDHS2; 1 µM to at least 5 mM tested,> 5 mM
same,effect on AthDHS2 activity (in words),AthDHS2,did not significantly affect
same,effect on AthDHS3 activity (in words),AthDHS3; 1 mM effector,did not significantly affect
same,observed DHS activity of the enzyme mixtures versus theoretically calculated activity,[1],matched with the theoretical plot
same,IC50,"[2]; Arabidopsis thaliana, read-out: IC50 of root growth suppression",~550 µM
same,concentration that suppressed root growth,"[2]; all dhs mutants, similarly to Col-0",> 300 µM
same,effect of the added compound on Trp-mediated root growth inhibition of dhs3,[2],not recovered
same,effect of the added compound on Tyr-mediated root growth inhibition of dhs1,[2],not sufficient
COc1cc(/C=C/C(=O)O)ccc1O [ferulate],effect on AthDHS1 activity (in words),AthDHS1,no effects
same,effect on AthDHS2 activity (in words),AthDHS2,no effects
same,effect on AthDHS3 activity (in words),AthDHS3; 1 mM effector,no effects
O=C(O)C1=C[C@@H](O)[C@@H](O)[C@H](O)C1 [shikimate],effect on AthDHS1 activity (in words),AthDHS1,did not significantly affect
same,inhibition of AthDHS2 activity,AthDHS2,approximately 30%
same,effect on AthDHS3 activity (in words),AthDHS3; 1 mM effector,did not significantly affect
same,sensitivity of root growth,"[2]; dhs mutants, up to 1000 µM",none of the dhs mutants showed sensitivity
same,effect of the added compound on Trp-mediated root growth inhibition of dhs3,[2],no effect
same,effect of the added compound on Tyr-mediated root growth inhibition of dhs1,[2],no effect
O=C(/C=C/c1ccc(O)c(O)c1)OC1CC(C(=O)O)=CC(O)C1O (stereo not shown) [Caffeoyl shikimate],effect on AthDHS1 activity (in words),AthDHS1,fully inhibited
same,effect on AthDHS2 activity (in words),AthDHS2,fully inhibited
same,reduction of AthDHS3 activity,AthDHS3; 1 mM effector,70%
O=C(O)C(=O)CC1(C(=O)O)C=CC(O)C=C1 (stereo not shown) [prephenate],effect on AthDHS1 activity (in words),AthDHS1,did not significantly affect
same,inhibition of AthDHS2 activity,AthDHS2,~25%
same,effect on AthDHS3 activity (in words),AthDHS3; 1 mM effector,did not significantly affect
O=C(O)CNCP(=O)(O)O [glyphosate],increase of shikimate accumulation after treatment,[3]; dhs2,five-fold
same,increase of shikimate accumulation after treatment,[3]; other genotypes,two–three-fold
same,effect on shikimate levels,"[3]; without Tyr, similar between genotypes",increased shikimate levels
"C=C(OP(=O)(O)O)C(=O)O [PEP, phosphoenolpyruvate]",K m,AthDHS1,250 ± 53 µM
same,V max,AthDHS1,15.3 ± 0.62 nmol/µM/min
same,k cat,AthDHS1,14 ± 0.57 s⁻¹
same,k cat,AthDHS2,8.95 ± 0.44 s⁻¹
same,K m,AthDHS2,360 ± 34 µM
same,V max,AthDHS2,9.81 ± 0.48 nmol/µM/min
same,V max,AthDHS3,9.15 ± 0.27 nmol/µM/min
"O=C[C@H](O)[C@H](O)COP(=O)(O)O [E4P, D-erythrose 4-phosphate]",K m,AthDHS1,2842 ± 910 µM
same,V max,AthDHS1,17.8 ± 0.59 nmol/µM/min
same,k cat,AthDHS1,16.4 ± 0.54 s⁻¹
same,substrate concentration beyond which AthDHS2 was inhibited,AthDHS2; substrate inhibition,> 4 mM
same,k cat,AthDHS2,11.8 ± 1.6 s⁻¹
same,K m,AthDHS2,1755 ± 400 µM
same,V max,AthDHS2,12.9 ± 1.8 nmol/µM/min
same,V max,AthDHS3,9.92 ± 0.31 nmol/µM/min
O=C(O)/C=C/c1ccccc1 [cinnamate],effect on AthDHS1 activity (in words),AthDHS1,no effects
same,effect on AthDHS2 activity (in words),AthDHS2,no effects
same,effect on AthDHS3 activity (in words),AthDHS3; 1 mM effector,no effects
